Source: patent publication US20110319392A1, “Thiazole Sulfonamide And Oxazole Sulfonamide Kinase Inhibitors” (priority 2009, published 2011)
pIC50: −log10 of the molar value.

How the values were obtained:
[1] = molecular target: T1, ErbB2 (Homo sapiens, UniProt P04626); assay: ErbB-2 substrate phosphorylation assay (HTRF); format: biochemical
T1 construct: made in house; host or cells: baculovirus expression system
How it was run: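 Baculovirus-expressed EGFR (0.8 nM) or ErbB2 (10 nM) in enzyme mix, preincubated 1 h at 20 °C with compound (0.00027–47.6 μM final), then 90 min at 20 °C with substrate mix of 20 μM ATP, 0.8 uM biotinylated Peptide C, MnCl2, MOPS pH 7.5. Phosphotyrosine by HTRF; pIC50 reported.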

[2] = tested on: SK-MEL-3 tumor cells; assay: Cell growth inhibition assay (CellTiter-Glo), SK-MEL-3; format: cell-based, Human; conditions: for pIC50: Homo sapiens, SK-MEL3
Description: (§1) Human breast tumor cells (BT474) were cultured in RPMI (Mediatech […]), containing 10% FBS (JRH Biosciences 12176) and 1% penicillin-streptomycin (Invitrogen 15140). Human head and neck tumor cells (HN5) were cultured in high glucose DMEM (Mediatech 50-013-PB) containing 10% FBS and 1% penicillin-streptomycin. Human colon tumor cells (Colo205) were cultured in RPMI (Mediatech 50-020-PB) containing 10% FBS and 1% penicillin-streptomycin. Human melanoma cancer cells (SK-MEL-28) were cultured in EMEM with nonessential amino acids (Mediatech 50-011-PB) containing 10% FBS, 1% sodium pyruvate (JT Baker 3354-04), and 1% penicillin-streptomycin. Human melanoma cancer cells (A375P F11s) were cultured in RPMI (Mediatech 50-020-PB) containing 10% FBS, 1% sodium pyruvate, and 1% penicillin-streptomycin. Human colon cancer cells (HT-29) were cultured in high glucose DMEM (Mediatech 50-013-PB) containing 10% FBS and 1% penicillin-streptomycin. Human melanoma cancer cells (SK-MEL-3) were cultured in McCoy's 5A (50-025-PB) containing 15% FBS, and 1% penicillin-streptomycin. All cell lines were maintained at 37° C. in a humidified 5% CO2, 95% air incubator. Cells were harvested using trypsin/EDTA (Invitrogen 25200), counted using a haemocytometer, and plated. For 96-well assays (using white full-area NUNC plates cat. #136102), cells were plated in 105 μL at the following densities (cells/well): HNS, 500; Colo 205, 500; SK-MEL-28, 500; A375P F11s, 500; HT-29, 500; SK-MEL-3, 500; and BT474, 3000. For 384-well assays (white full-area NUNC plates, cat. #781080), cells were plated in 48 μL at the following densities (cells/well): HNS, 500; Colo205, 500; SK-MEL-28, 500; A375P F11s, 500; HT-29, 500; SK-MEL-3, 500; and BT474, 2000.
(§2) The next day, compounds were diluted as follow: For 96-well assays, 13.5 μL of compound in DMSO were diluted using nine (9) serial 1:3 dilutions of 4.5 μL in 9 of DMSO. Medium (270 μL/well of RPMI with 10% FBS and 1% penicillin-streptomycin) was added to the plates. Aliquots (7 μL) were added to cells in the final assay giving a final DMSO concentration of 0.2%. For 384-well assays, 15 μL of compound in DMSO were diluted using nine (9) serial 1:3 dilutions of 5 μL in 10 μL of DMSO, followed by a further dilution of 5 μL of compound with 95 μL of medium, of which 2 μL were added to cells in the final assay giving a final DMSO concentration of 0.2%. Cells were incubated at 37° C., 5% CO2 for 3 days.
(§3) Total ATP was measured (as a surrogate estimate of cell number) using CellTiter-Glo® reagent (Promega G7571). Briefly, plates were removed from the incubator and allowed to equilibrate to room temperature for 30 minutes. CellTiter-Glo® (25 μL or 55 μL for 384-well or 96-well assays, respectively) reagent was added to each well and plates were shaken on an orbital plate shaker for 2 minutes. Plates were incubated without shaking for a further 30 minutes and read on an LJL Analyst GT reader in luminometer mode with an integration time of 0.5 seconds per well. Percent inhibition of cell growth was calculated relative to DMSO vehicle-treated control wells. Concentration of compound required to give 50% inhibition of vehicle-treated control cell growth (IC50) was interpolated using a 4-parameter fit for determining IC50 using the following equation: Y=A +((B−A)/(1+((C/X)̂D))) where […].

[3] = tested on: BT474 tumor cells; assay: Cell growth inhibition assay (CellTiter-Glo), BT474; format: cell-based, Human; conditions: 3 days incubation
Description: as §1, §2, §3

[4] = tested on: HT-29 tumor cells; assay: Cell growth inhibition assay (CellTiter-Glo), HT-29; format: cell-based, Human; conditions: for pIC50: Homo sapiens
Description: as §1, §2, §3

T1 sequence (P04626 23-1255): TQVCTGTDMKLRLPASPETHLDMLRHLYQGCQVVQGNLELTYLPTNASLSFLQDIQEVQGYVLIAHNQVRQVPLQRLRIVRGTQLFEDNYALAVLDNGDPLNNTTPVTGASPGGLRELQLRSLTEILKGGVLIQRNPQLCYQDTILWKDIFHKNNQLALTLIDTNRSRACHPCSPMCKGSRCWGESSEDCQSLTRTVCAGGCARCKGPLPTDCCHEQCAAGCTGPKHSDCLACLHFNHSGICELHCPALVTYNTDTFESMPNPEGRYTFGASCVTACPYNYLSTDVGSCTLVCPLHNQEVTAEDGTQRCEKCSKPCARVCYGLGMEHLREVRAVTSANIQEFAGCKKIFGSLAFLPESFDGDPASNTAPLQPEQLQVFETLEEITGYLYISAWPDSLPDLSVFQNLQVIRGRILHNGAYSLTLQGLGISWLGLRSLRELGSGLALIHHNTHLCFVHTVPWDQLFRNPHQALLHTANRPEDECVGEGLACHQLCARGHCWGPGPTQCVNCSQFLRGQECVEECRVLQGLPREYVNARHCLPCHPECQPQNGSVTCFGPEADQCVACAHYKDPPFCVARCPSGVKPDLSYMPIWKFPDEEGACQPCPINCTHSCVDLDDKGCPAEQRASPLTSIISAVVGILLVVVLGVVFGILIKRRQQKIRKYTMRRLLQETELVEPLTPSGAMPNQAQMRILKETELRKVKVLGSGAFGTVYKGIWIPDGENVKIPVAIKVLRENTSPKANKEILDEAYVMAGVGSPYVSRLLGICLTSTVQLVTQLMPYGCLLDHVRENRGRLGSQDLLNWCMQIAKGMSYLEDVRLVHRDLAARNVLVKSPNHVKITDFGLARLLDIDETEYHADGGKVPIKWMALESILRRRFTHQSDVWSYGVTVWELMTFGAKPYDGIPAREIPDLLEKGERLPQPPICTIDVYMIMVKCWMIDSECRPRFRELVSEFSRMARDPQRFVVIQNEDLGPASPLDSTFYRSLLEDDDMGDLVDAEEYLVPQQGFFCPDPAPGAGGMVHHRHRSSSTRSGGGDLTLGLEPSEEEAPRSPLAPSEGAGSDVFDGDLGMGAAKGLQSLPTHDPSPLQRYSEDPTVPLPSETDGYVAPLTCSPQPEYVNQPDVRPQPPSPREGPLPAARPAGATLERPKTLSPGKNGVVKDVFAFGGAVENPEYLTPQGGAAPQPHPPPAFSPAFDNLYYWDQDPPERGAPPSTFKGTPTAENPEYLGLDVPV

| pIC50 [1] | pIC50 ([3]; Homo sapiens, BT-474, 72 h) | pIC50 [4] | pIC50 [2] | pIC50 [3] | Compound | Activity in SK-MEL-3 Tumor Cells [2] | Activity in HT-29 Tumor Cells [4] |
| --- | --- | --- | --- | --- | --- | --- | --- |
| 6.00 to 7.00 | < 6.00 | < 6.00 |  |  | CCc1nc(-c2cccc(CNS(=O)(=O)c3ccccc3)c2)c(-c2ccnc(Nc3ccc(N4CCOCC4)c(F)c3)n2)s1 [Example 34] | + (activity of >1 μM in SK-MEL-3 tumor cells) |  |
| 6.00 to 7.00 | < 6.00 | 6.00 to 7.00 | > 7.00 |  | CN(C)c1nc(-c2ccc(F)c(NS(=O)(=O)c3c(F)cccc3F)c2)c(-c2ccnc(Nc3ccc(N4CCOCC4)nc3)n2)s1 [Example 27, N-{5-[2-(Dimethylamino)-5-(2-{[6-(4-morpholinyl)-3-pyridinyl]amino}-4-pyrimidinyl)-1,3-thiazol-4-yl]-2-fluorophenyl}-2,6-difluorobenzenesulfonamide] |  |  |
| 6.00 to 7.00 | < 6.00 | > 7.00 | 6.00 to 7.00 |  | CC(C)c1nc(-c2ccc(F)c(NS(=O)(=O)c3c(F)cccc3F)c2)c(-c2ccnc(Nc3ccc(N4CCC(C#N)CC4)nc3)n2)s1 [Example 24, N-{5-[5-(2-{[6-(4-Cyano-1-piperidinyl)-3-pyridinyl]amino}-4-pyrimidinyl)-2-(1-methylethyl)-1,3-thiazol-4-yl]-2-fluorophenyl}-2,6-difluorobenzenesulfonamide] |  |  |
| < 6.00 | < 6.00 | 6.00 to 7.00 | 6.00 to 7.00 |  | CC(=O)N1CCN(c2ccc(Nc3nccc(-c4sc(C(C)C)nc4-c4cccc(NS(=O)(=O)c5ccc(F)cc5)c4)n3)cn2)CC1 [Example 10, N-{3-[5-(2-{[6-(4-Acetyl-1-piperazinyl)-3-pyridinyl]amino}-4-pyrimidinyl)-2-(1-methylethyl)-1,3-thiazol-4-yl]phenyl}-4-fluorobenzenesulfonamide] |  |  |
| < 6.00 | < 6.00 | 6.00 to 7.00 | 6.00 to 7.00 |  | CC(C)c1nc(-c2ccc(F)c(NS(=O)(=O)c3c(F)cccc3F)c2)c(-c2ccnc(Nc3ccncc3)n2)s1 [Example 102] |  |  |
| 6.00 to 7.00 |  |  |  | 6.00 to 7.00 | CCNc1nc(-c2cccc(NS(=O)(=O)c3ccccc3)c2)c(-c2ccnc(Nc3ccc(OCCN4CCCC4)c(F)c3)n2)s1 [Example 1, N-(3-(2-(Ethylamino)-5-{2-[(3-fluoro-4-[[2-(1-pyrrolidinyl)ethyl]oxy}phenyl)amino]-4-pyrimidinyl}-1,3-thiazol-4-yl)phenyl]benzenesulfonamide] | ++ (activity of between 100 nM and 1 μM in SK-MEL-3 tumor cells) | ++ (activity of between 100 nM and 1 μM in HT-29 tumor cells) |
| < 6.00 | < 6.00 | < 6.00 | 6.00 to 7.00 |  | CC(=O)N1CCN(c2ccc(Nc3nccc(-c4sc(C(C)C)nc4-c4cccc(NS(=O)(=O)c5cn(C)cn5)c4)n3)cn2)CC1 [Example 36] |  |  |
| > 7.00 | < 6.00 | < 6.00 | 6.00 to 7.00 |  | CCOc1ccc(Nc2nccc(-c3sc(C(C)C)nc3-c3ccc(F)c(NS(=O)(=O)c4c(F)cccc4F)c3)n2)cc1N1CCN(CCF)CC1 [Example 98] |  |  |
| < 6.00 | < 6.00 | 6.00 to 7.00 | > 7.00 |  | CC(C)c1nc(-c2cccc(NS(=O)(=O)c3c(F)cccc3F)c2)c(-c2ccnc(Nc3ccc(N4CCOCC4)c(C(=O)O)c3)n2)s1 [Example 14, 5-({4-[4-(3-{[(2,6-Difluorophenyl)sulfonyl]amino}phenyl)-2-(1-methylethyl)-1,3-thiazol-5-yl]-2-pyrimidinyl}amino)-2-(4-morpholinyl)benzoic acid] |  |  |
| 6.00 to 7.00 | 6.00 to 7.00 | > 7.00 | > 7.00 |  | CCNc1nc(-c2cccc(NS(=O)(=O)c3c(F)cccc3F)c2)c(-c2ccnc(Nc3ccc(N4CCOCC4)nc3)n2)s1 [Example 152] |  |  |
| 6.00 to 7.00 | < 6.00 | 6.00 to 7.00 | 6.00 to 7.00 |  | Cc1cc(Nc2nccc(-c3sc(C(C)C)nc3-c3ccc(F)c(NS(=O)(=O)c4c(F)cccc4F)c3)n2)ccn1 [Example 116] |  |  |
